Values quoted from earlier work, collected in paper PMC12141164, “Phase-1 study of vamotinib (PF-114), a 3rd generation BCR::ABL1 tyrosine kinase-inhibitor, in chronic myeloid leukaemia” (Annals of Hematology, 2025).

Columns and labels:
[1] = tested on: BaF3 cells expressing BCR::ABL1^T315I; design: method as in PMID 25394714; details: read-out: IC50 of cytotoxicity; cited from earlier work
[2] = tested on: EPHA7; details: kinase inhibition profiles; cited from earlier work
[3] = tested on: dogs; design: method as in PMID 25394714; details: pre-clinical toxicology; cited from earlier work
[4] = tested on: PDGFRa; details: kinase inhibition profiles; cited from earlier work
[5] = tested on: TIE2; details: kinase inhibition profiles; cited from earlier work

Cc1ccc(C(=O)Nc2ccc(CN3CCN(C)CC3)c(C(F)(F)F)c2)cc1C#Cc1nnc2ccccn12 [vamotinib]
IC50 [1]: 75 nM
inhibition of EPHA7 [2]: not
Rash [3]: Rash was seen
inhibition of PDGFRa [4]: potently inhibited
inhibition of TIE2 [5]: not
